Results as given in DBAASP.
In brackets after ≈: the same amount, converted by molar mass. Several values for one entry are separate records, joined by “and”; a condition that tells them apart may be missing. Identical values can stand only once. Values belong to the compound of their own block, whether it stands above or below them.

Legend:
Assay in all cases: ≥ marks a high value that may be exact or a test limit, other limits are often not marked, values filed in µg/mL are converted to µM
[1] = system: Staphylococcus aureus CCARM 3001
[2] = system: Staphylococcus aureus CCARM 3089
[3] = system: Staphylococcus aureus KCTC 1621
[4] = system: Escherichia coli KCTC 1682
[5] = system: Staphylococcus aureus DSM 1104
[6] = system: Staphylococcus epidermidis DSM 1798
[7] = system: Pseudomonas aeruginosa CCARM 2109
[8] = system: Bacillus subtilis KCTC 3068
[9] = system: Pseudomonas aeruginosa KCTC 1637
[10] = system: Pseudomonas aeruginosa CCARM 2092
[11] = system: Escherichia coli DSM 1103
[12] = system: Pseudomonas aeruginosa DSM 1117
[13] = system: Salmonella typhimurium KCTC 1926
[14] = system: Pseudomonas aeruginosa CCARM 2095
[15] = system: Staphylococcus aureus CCARM 3543
[16] = system: Staphylococcus epidermidis KCTC 1917
Candida krusei DSM 70079 = system: Candida krusei DSM 70079
[17] = system: Candida albicans ATCC 10231
[18] = system: Aspergillus niger ATCC 9029
[19] = system: Candida glabrata ATCC 90030
[20] = system: Aspergillus flavus PFCC 100
[21] = system: Aspergillus fumigatus Af293
[22] = system: Pseudomonas aeruginosa ATCC 27853
[23] = system: Acinetobacter baumannii 4-MRGN
Escherichia coli K99 = system: Escherichia coli K99
[24] = system: Escherichia coli ATCC 25922
[25] = system: Pseudomonas aeruginosa CICC 21630
Pseudomonas aeruginosa = system: Pseudomonas aeruginosa
[26] = system: Pseudomonas aeruginosa CICC 21625
Escherichia coli = system: Escherichia coli
Escherichia coli UB1005 = system: Escherichia coli UB1005
Klebsiella pneumoniae = system: Klebsiella pneumoniae
Acinetobacter baumannii = system: Acinetobacter baumannii
[27] = system: Salmonella enterica subsp. enterica serovar Typhimurium ATCC 14028
[28] = system: Salmonella enterica subsp. enterica serovar Pullorum C79-13
[29] = system: Salmonella enterica subsp. enterica serovar Typhimurium C77-31
Escherichia coli K88 = system: Escherichia coli K88
[30] = system: Pseudomonas aeruginosa PAO1
[31] = system: Escherichia coli BL21(DE3)
[32] = system: Staphylococcus aureus ATCC 29213
[33] = system: Escherichia coli ATCC BAA-2523
Enterococcus faecalis VR = system: Enterococcus faecalis VR
[34] = system: Staphylococcus aureus ATCC 43300
Enterococcus faecalis = system: Enterococcus faecalis

SMILES: CC(C)[C@H](NC(=O)[C@H](CCCCN)NC(=O)[C@H](CCCN=C(N)N)NC(=O)[C@H](CCCCN)NC(=O)[C@H](CCCCN)NC(=O)[C@H](CCCCN)NC(=O)[C@@H]1CCCN1C(=O)[C@H](CCC(N)=O)NC(=O)[C@H](CO)NC(=O)[C@H](Cc1c[nH]c2ccccc12)NC(=O)[C@H](CCC(=O)O)NC(=O)[C@@H](NC(=O)[C@H](Cc1c[nH]c2ccccc12)NC(=O)[C@H](Cc1c[nH]c2ccccc12)NC(=O)[C@@H](NC(=O)[C@H](CCC(=O)O)NC(=O)[C@H](Cc1c[nH]c2ccccc12)NC(=O)[C@H](Cc1c[nH]c2ccccc12)NC(=O)[C@@H](NC(=O)[C@H](CCC(=O)O)NC(=O)[C@@H](N)CCCCN)[C@@H](C)O)[C@@H](C)O)[C@@H](C)O)C(=O)O [KETWWETWWTEWSQPKKKRKV]
MIC [1]: ≥ 64 µM | MIC [2]: ≥ 64 µM | MIC [3]: ≥ 64 µM | MIC [4]: ≥ 32 µM | MIC [5]: ≥ 87 µM | MIC [6]: ≥ 87 µM | MIC [7]: ≥ 32 µM | MIC [8]: 8 µM (≈ 22.8 µg/mL) | MIC [9]: ≥ 64 µM | MIC [10]: ≥ 32 µM | MIC [11]: ≥ 87 µM | MIC [12]: ≥ 87 µM | MIC [13]: ≥ 64 µM | MIC [14]: ≥ 64 µM | MIC [15]: ≥ 64 µM | MIC [16]: ≥ 64 µM

SMILES: CC[C@H](C)[C@H](NC(=O)CNC(=O)[C@@H](NC(=O)[C@H](Cc1ccccc1)NC(=O)[C@H](C)NC(=O)[C@H](CCCCN)NC(=O)[C@@H](NC(=O)[C@H](CO)NC(=O)[C@@H](N)CC(C)C)C(C)C)[C@@H](C)O)C(=O)N[C@@H](CCC(N)=O)C(=O)N[C@@H](CC(C)C)C(=O)N[C@@H](CCCN=C(N)N)C(=O)NCC(=O)N[C@H](C(=O)N[C@@H](CS)C(=O)NCC(=O)N[C@H](C(=O)N[C@@H](CCC(=O)O)C(=O)N[C@H](C(=O)N[C@@H](CCCCN)C(=O)N[C@@H](C)C(=O)N[C@@H](CCCN=C(N)N)C(=O)NCC(=O)O)C(C)C)[C@@H](C)CC)C(C)C [LSVKAFTGIQLRGVCGIEVKARG]
MIC (Candida krusei DSM 70079): 6.66 µM (≈ 16 µg/mL) | MIC [17]: 6.66 µM (≈ 16 µg/mL) | MIC [18]: 6.66 µM (≈ 16 µg/mL) | MIC [19]: 3.33 µM (≈ 8 µg/mL) | MIC [20]: 13.3 µM (≈ 32 µg/mL) | MIC [21]: 6.66 µM (≈ 16 µg/mL)

SMILES: C[C@H](N)C(=O)N[C@H](C(=O)N[C@@H](CS)C(=O)N[C@@H](Cc1ccc(O)cc1)C(=O)N[C@H]1CSSC[C@@H](C(=O)N[C@@H](C)C(=O)N[C@H](C(=O)N[C@@H](CCCN=C(N)N)C(=O)O)[C@@H](C)O)NC(=O)[C@H](CCCN=C(N)N)NC(=O)CNC(=O)[C@H]([C@@H](C)O)NC(=O)[C@H](CCCN=C(N)N)NC1=O)[C@@H](C)O [ATCYCRTGRCATR]
MIC [22]: > 99.9 µM | MIC [23]: ≥ 99.9 µM

The remaining lines, values ahead:

MIC (Escherichia coli K99): ≥ 64 µM | MIC [24]: > 64 µM | MIC [25]: ≥ 64 µM | MIC (Pseudomonas aeruginosa): > 64 µM | MIC [26]: ≥ 64 µM | MIC (Escherichia coli): > 64 µM | MIC [22]: > 64 µM | MIC (Escherichia coli UB1005): ≥ 64 µM | MIC (Klebsiella pneumoniae): > 64 µM | MIC (Acinetobacter baumannii): ≥ 64 µM | MIC [27]: > 64 µM | MIC [28]: ≥ 64 µM | MIC [29]: ≥ 64 µM | MIC (Escherichia coli K88): ≥ 64 µM | MIC [30]: > 64 µM
SMILES: CC(C)[C@H](N)C(=O)N[C@@H](CCCCN)C(=O)N1CCC[C@H]1C(=O)N[C@H](C(=O)N[C@H](C(=O)N[C@@H](CCCCN)C(=O)N1CCC[C@H]1C(=O)N[C@H](C(=O)N[C@H](C(=O)N[C@@H](CCCCN)C(=O)N1CCC[C@H]1C(=O)N[C@H](C(=O)N[C@H](C(=O)N[C@@H](CCCCN)C(=O)N1CCC[C@H]1C(=O)N[C@H](C(=O)N[C@H](C(=O)N[C@@H](CCCCN)C(=O)N1CCC[C@H]1C(=O)N[C@H](C(=O)N[C@H](C(=O)N[C@@H](CCCCN)C(=O)N1CCC[C@H]1C(=O)N[C@H](C(N)=O)C(C)C)C(C)C)C(C)C)C(C)C)C(C)C)C(C)C)C(C)C)C(C)C)C(C)C)C(C)C)C(C)C [VKPVVKPVVKPVVKPVVKPVVKPV]

MIC [31]: 4 µM and 8 µM
SMILES: CC[C@H](C)[C@H](NC(=O)[C@H](CC(C)C)NC(=O)[C@H](CCCN=C(N)N)NC(=O)[C@@H](NC(=O)[C@H](CC(C)C)NC(=O)[C@H](CCCN=C(N)N)NC(=O)[C@@H](N)CCCN=C(N)N)[C@@H](C)CC)C(=O)N[C@@H](CC(C)C)C(=O)N[C@@H](CCCN=C(N)N)C(=O)N[C@@H](CC(C)C)C(=O)N[C@@H](CC(C)C)C(=O)N[C@@H](CCCN=C(N)N)C(N)=O [RRLIRLILRLLR]

MIC [24]: 64 µM (≈ 161 µg/mL) | MIC (Pseudomonas aeruginosa): 128 µM (≈ 323 µg/mL) | MIC [32]: 32 µM (≈ 80.7 µg/mL) | MIC [22]: > 128 µM | MIC [33]: ≥ 128 µM | MIC (Enterococcus faecalis VR): 16 µM (≈ 40.4 µg/mL) | MIC [34]: 16 µM (≈ 40.4 µg/mL) | MIC (Enterococcus faecalis): ≥ 32 µM
SMILES: CC(C)C[C@H](NC(=O)[C@@H](N)CCC(N)=O)C(=O)NCC(=O)N[C@@H](CCCN=C(N)N)C(=O)N[C@@H](CCCN=C(N)N)C(=O)N[C@@H](CCCN=C(N)N)C(=O)N[C@@H](Cc1cnc[nH]1)C(=O)N[C@@H](CCCN=C(N)N)C(=O)N[C@@H](CCCN=C(N)N)C(=O)N[C@@H](CCCN=C(N)N)C(=O)N1CCC[C@H]1C(=O)N[C@@H](CO)C(=O)N[C@@H](CCCN=C(N)N)C(=O)N[C@@H](CCCN=C(N)N)C(=O)N[C@@H](CCCN=C(N)N)C(=O)N[C@@H](CCCN=C(N)N)C(=O)N[C@@H](Cc1cnc[nH]1)C(=O)N[C@@H](Cc1c[nH]c2ccccc12)C(=O)O [QLGRRRHRRRPSRRRRHW]
